# pEC50: −log10 of the molar value.
# Target: AMPK
# Assay: AMPK activation, enzyme-linked immunosorbent assay
# Type: biochemical
# Conditions: Table 14, compounds of Table 7
# Method in brief: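 AMPK activation by test compounds was measured by enzyme-linked immunosorbent assay.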
row,Compound,pEC50
1,"N#Cc1ccc(CN2CCC(NC(=O)c3ccc(C(=O)N4CCC(C(=O)c5ccc(N6CCOCC6)cc5)CC4)nc3)[C@H](F)C2)cc1 (stereo partly drawn) [Compound 7-75, N-((3,4-trans)-1-(4-cyanobenzyl)-3-fluoropiperidin-4-yl)-6-(4-(4-morpholinobenzoyl)piperidine-l-carbonyl)nicotinamide]",> 6.00
2,"CC(=O)c1ccc(Oc2ccc(NC(=O)c3ccc(C(=O)N4CCN(Cc5ccc(S(C)(=O)=O)cc5)CC4)nc3)cn2)cc1 [Compound 7-76, N-(6-(4-acetylphenoxy)pyridin-3-yl)-6-(4-(4-(methylsulfonyl)benzyl)piperazine-1-carbonyl) nicotinamide]",5.00 to 6.00
3,"CS(=O)(=O)c1ccc(N2CCN(c3ccc(C(=O)NC4CCN(Cc5ccc(C#N)cc5)CC4)cn3)CC2)cc1 [Compound 7-77, N-(1-(4-cyanobenzyl)piperidin-4-yl)-6-(4-(4-(methylsulfonyl)phenyl)piperazin-1-yl)nicotinamide]",> 6.00
4,"COc1ccc(C(=O)C2CCN(C(=O)c3ccc(C(=O)NC4CCN(Cc5ccc(C#N)cc5)C[C@@H]4C)cn3)CC2)cc1 (stereo partly drawn) [Compound 7-78, N-((3,4-trans)-1-(4-cyanobenzyl)-3-methylpiperidin-4-yl)-6-(4-(4-methoxybenzoyl)piperidine-1-carbonyl)nicotinamide]",> 6.00
5,"CS(=O)(=O)c1ccc(CN2CCN(c3ccc(C(=O)NC4CCN(Cc5ccc(C#N)cc5)CC4)cn3)CC2)cc1 [Compound 7-79, N-(1-(4-cyanobenzyl)piperidin-4-yl)-6-(4-(4-(methylsulfonyl)benzyl)piperazin-1-yl)nicotinamide]",4.70 to 5.00
6,"CS(=O)(=O)c1ccc(OC2CCN(c3ccc(C(=O)NC4CCN(Cc5ccc(C#N)cc5)CC4)cn3)CC2)cc1 [Compound 7-80, N-(1-(4-cyanobenzyl)piperidin-4-yl)-6-(4-(4-(methylsulfonyl)phenoxy)piperidin-1-yl)nicotinamide]",> 6.00
7,"N#Cc1ccc(CN2CCC(NC(=O)c3ccc(N4CCN(c5ccc(C(=O)C6CC6)cc5)CC4)nc3)CC2)cc1 [Compound 7-81, N-(1-(4-cyanobenzyl)piperidin-4-yl)-6-(4-(4-(cyclopropanecarbonyl)phenyl)piperazin-1-yl)nicotinamide]",> 6.00
8,"CC(=O)c1ccc(Oc2ccc(NC(=O)c3ccc(C(=O)N4CCN(Cc5ccc(S(=O)(=O)N6CCCC6)cc5)CC4)nc3)cn2)cc1 [Compound 7-83, N-(6-(4-acetylphenoxy)pyridin-3-yl)-6-(4-(4-(pyrrolidin-1-ylsulfonyl)benzyl)piperazine-1-carbonyl)nicotinamide]",5.00 to 6.00
9,"COc1ccc(C(=O)C2CCN(C(=O)c3ccc(C(=O)NC4CCN(Cc5ccc(C#N)cc5)CC4(C)C)cn3)CC2)cc1 (stereo not drawn) [Compound 7-84, N-(1-(4-cyanobenzyl)-3,3-dimethylpiperidin-4-yl)-6-(4-(4-methoxybenzoyl)piperidine-1-carbonyl)nicotinamide]",> 6.00
10,"COc1ccc(C(=O)C2CCN(C(=O)c3ccc(C(=O)NC4CCN(Cc5ccc(OC(F)(F)F)cc5)CC4(C)C)cn3)CC2)cc1 (stereo not drawn) [Compound 7-85, N-(3,3-dimethyl-1-(4-(trifluoromethoxy)benzyl)piperidin-4-yl)-6-(4-(4-methoxybenzoyl)piperidine-1-carbonyl)nicotinamide]",> 6.00
11,"COc1ccc(C(=O)C2CCN(C(=O)c3ccc(C(=O)NC4CCN(Cc5ccc(C#N)c(F)c5)CC4(C)C)cn3)CC2)cc1 (stereo not drawn) [Compound 7-86, N-(1-(4-cyano-3-fluorobenzyl)-3,3-dimethylpiperidin-4-yl)-6-(4-(4-methoxybenzoyl)piperidine-1-carbonyl)nicotinamide]",> 6.00
12,"COc1ccc(C(=O)C2CCN(C(=O)c3ccc(C(=O)NC4CCN(Cc5ccc(F)c(OC)c5)CC4(C)C)cn3)CC2)cc1 (stereo not drawn) [Compound 7-87, N-(1-(4-fluoro-3-methoxybenzyl)-3,3-dimethylpiperidin-4-yl)-6-(4-(4-methoxybenzoyl)piperidine-1-carbonyl)nicotinamide]",5.00 to 6.00
13,"COc1ccc(C(=O)C2CCN(C(=O)c3ccc(C(=O)NC4CCN(Cc5ccc(C#N)c(OC)c5)CC4(C)C)cn3)CC2)cc1 (stereo not drawn) [Compound 7-89, N-(1-(4-cyano-3-methoxybenzyl)-3,3-dimethylpiperidin-4-yl)-6-(4-(4-methoxybenzoyl)piperidine-1-carbonyl)nicotinamide]",5.00 to 6.00
14,"COc1ccc(C(=O)C2CCN(C(=O)c3ccc(C(=O)NC4CCN(Cc5ccc(OC)c(C#N)c5)CC4(C)C)cn3)CC2)cc1 (stereo not drawn) [Compound 7-90, N-(1-(3-cyano-4-methoxybenzyl)-3,3-dimethylpiperidin-4-yl)-6-(4-(4-methoxybenzoyl)piperidine-1-carbonyl)nicotinamide]",5.00 to 6.00
15,"CCNS(=O)(=O)c1ccc(CN2CCN(C(=O)c3ccc(C(=O)N4CCC(C(=O)c5ccc(OC)cc5)CC4)nc3)CC2)cc1 [Compound 7-91, N-ethyl-4-((4-(6-(4-(4-methoxybenzoyl)piperidine-1-carbonyl)nicotinoyl)piperazin-1-yl)methyl)benzenesulfonamide]",4.70 to 5.00
16,"CCNS(=O)(=O)c1ccc(CN2CCN(C(=O)c3ccc(C(=O)Nc4ccc(Oc5ccc(C(C)=O)cc5)nc4)cn3)CC2)cc1 [Compound 7-92, N-(6-(4-acetylphenoxy)pyridin-3-yl)-6-(4-(4-(N-ethylsulfamoyl)benzyl)piperazine-1-carbonyl) nicotinamide]",5.00 to 6.00

# The next lines start with the values.
row,pEC50,Compound
1,> 6.00,"COc1ccc(C(=O)C2CCN(C(=O)c3ccc(C(=O)NC4CCN(Cc5ccc(C#N)cc5)C[C@@H]4C)cn3)CC2)cc1 (stereo partly drawn) [Compound 7-93, N-((3,4-cis)-1-(4-cyanobenzyl)-3-methylpiperidin-4-yl)-6-(4-(4-methoxybenzoyl)piperidine-1-carbonyl)nicotinamide]"
2,> 6.00,"COc1ccc(C(=O)C2CCN(C(=O)c3ccc(C(=O)NC4CCN(Cc5ccc(OC(F)(F)F)cc5)C[C@@H]4C)cn3)CC2)cc1 (stereo partly drawn) [Compound 7-94, 6-(4-(4-methoxybenzoyl)piperidine-1-carbonyl)-N-((3,4-cis)-3-methyl-1-(4-(trifluoromethoxy)benzyl)piperidin-4-yl)nicotinamide]"
3,> 6.00,"COc1ccc(C(=O)C2CCN(C(=O)c3ccc(C(=O)NC4CCN(Cc5ccc(OC)c(F)c5)CC4(C)C)cn3)CC2)cc1 (stereo not drawn) [Compound 7-95, N-(1-(3-fluoro-4-methoxybenzyl)-3,3-dimethylpiperidin-4-yl)-6-(4-(4-methoxybenzoyl)piperidine-1-carbonyl)nicotinamide]"
4,> 6.00,"COc1ccc(C(=O)C2CCN(C(=O)c3ccc(C(=O)NC4CCN(Cc5ccc(OC)c(F)c5)C[C@@H]4C)cn3)CC2)cc1 (stereo partly drawn) [Compound 7-96, N-((3,4-cis)-1-(3-fluoro-4-methoxybenzyl)-3-methylpiperidin-4-yl)-6-(4-(4-methoxybenzoyl)piperidine-1-carbonyl)nicotinamide]"
5,> 6.00,"COc1ccc(C(=O)C2CCN(C(=O)c3ccc(C(=O)NC4CCN(Cc5ccc(F)c(OC)c5)C[C@@H]4C)cn3)CC2)cc1 (stereo partly drawn) [Compound 7-97, N-((3,4-cis)-1-(4-fluoro-3-methoxybenzyl)-3-methylpiperidin-4-yl)-6-(4-(4-methoxybenzoyl)piperidine-1-carbonyl)nicotinamide]"
6,> 6.00,"COc1ccc(C(=O)C2CCN(C(=O)c3ccc(C(=O)NC4CCN(Cc5ccc(C#N)c(F)c5)C[C@@H]4C)cn3)CC2)cc1 (stereo partly drawn) [Compound 7-98, N-((3,4-cis)-1-(4-cyano-3-fluorobenzyl)-3-methylpiperidin-4-yl)-6-(4-(4-methoxybenzoyl)piperidine-1-carbonyl)nicotinamide]"
7,> 6.00,"COc1ccc(C(=O)C2CCN(C(=O)c3ccc(C(=O)NC4CCN(Cc5ccc(C#N)c(OC)c5)C[C@@H]4C)cn3)CC2)cc1 (stereo partly drawn) [Compound 7-99, N-((3,4-cis)-1-(4-cyano-3-methoxybenzyl)-3-methylpiperidin-4-yl)-6-(4-(4-methoxybenzoyl)piperidine-1-carbonyl)nicotinamide]"
8,> 6.00,"COc1ccc(C(=O)C2CCN(C(=O)c3ccc(C(=O)NC4CCN(Cc5ccc(OC)c(C#N)c5)C[C@@H]4C)cn3)CC2)cc1 (stereo partly drawn) [Compound 7-100, N-((3,4-cis)-1-(3-cyano-4-methoxybenzyl)-3-methylpiperidin-4-yl)-6-(4-(4-methoxybenzoyl)piperidine-1-carbonyl)nicotinamide]"
9,> 6.00,"COc1ccc(C(=O)C2CCN(C(=O)c3ccc(C(=O)NC4CCN(Cc5ccc(C#N)cc5)C[C@@H]4C(F)(F)F)cn3)CC2)cc1 (stereo partly drawn) [Compound 7-101, N-((3,4-cis)-1-(4-cyanobenzyl)-3-(trifluoromethyl)piperidin-4-yl)-6-(4-(4-methoxybenzoyl)piperidine-1-carbonyl)nicotinamide]"
10,> 6.00,"COc1ccc(CN2CCC(NC(=O)c3ccc(C(=O)N4CCC(C(=O)c5ccc(OC)cc5)CC4)nc3)[C@@H](C(F)(F)F)C2)cc1 (stereo partly drawn) [Compound 7-102, 6-(4-(4-methoxybenzoyl)piperidine-1-carbonyl)-N-((3,4-cis)-1-(4-methoxybenzyl)-3 - (trifluoromethyl)piperidin-4-yl)nicotinamide]"
11,> 6.00,"COc1ccc(C(=O)C2CCN(C(=O)c3cc(C)c(C(=O)NC4CCN(Cc5ccc(C#N)cc5)CC4)cn3)CC2)cc1 [Compound 7-105, N-(1-(4-cyanobenzyl)piperidin-4-yl)-6-(4-(4-methoxybenzoyl)piperidine-1-carbonyl)-4-methylnicotinamide]"
12,> 6.00,"O=C(NC1CCN(Cc2ccc(OC(F)(F)F)cc2)CC1)c1ccc(C(=O)N2CCC(Oc3cccc(NC(=O)C4CC4)c3)CC2)nc1 [Compound 7-108, 6-(4-(3-(cyclopropanecarboxamido)phenoxy)piperidine-1-carbonyl)-N-(1-(4-(trifluoromethoxy)benzyl)piperidin-4-yl)nicotinamide]"
13,> 6.00,"COc1ccc(CN2CCC(NC(=O)c3ccc(C(=O)N4CCC(C(=O)c5ccc(N6CCCC6)cc5)CC4)nc3)CC2)cc1 [Compound 7-109, N-(1-(4-methoxybenzyl)piperidin-4-yl)-6-(4-(4-(pyrrolidin-1-yl)benzoyl)piperidine-1-carbonyl)nicotinamide]"
14,> 6.00,"O=C(NC1CCN(Cc2ccc(OC(F)(F)F)cc2)CC1)c1ccc(C(=O)N2CCC(C(=O)c3ccc(N4CCCC4)cc3)CC2)nc1 [Compound 7-110, 6-(4-(4-(pyrrolidin-1-yl)benzoyl)piperidine-1-carbonyl)-N-(1-(4-(trifluoromethoxy)benzyl)piperidin-4-yl)nicotinamide]"
